In patent US20170252289A1, “Hydroponic Tiliacora Triandra and Use Thereof” (Avon Products, Inc., priority 2016, published 2017):

What was measured:
HAS3 gene = test: Hyaluronic acid synthase (HAS) gene expression by qPCR in treated 3D skin tissue, HAS3; assay type: cell-based, Human; conditions: treated 3D skin EFT400FT tissue, 18S house keeping gene
Method: (§1) Total RNA was isolated from each treated 3D skin EFT400FT tissue using Trizol reagent (Thermo Fisher Scientific, MA). 1 μg of total RNA was used to generate cDNA using Supercript III first strand synthesis kit (Thermo Fisher Scientific, MA). Reverse transcriptase, Buffer, dNTP, Random primer, and RNase Inhibitor were diluted with the RNA according to the protocol from the manufacturer. 25 ng cDNA was used in 20 μl q-PCR reactions. Briefly, 10 μl of TaqMan Advanced Master Mix (Thermo Fisher Scientific, MA), 4 μl of H2O, 5 μl of cDNA, and 1 μl of either HAS primer (HAS2 Hs00193435_m1 and HAS3 Hs00193436_m1, Applied Biosystems) or 18S (Hs99999901_s1, Applied Biosystems) as a house keeping gene were mixed in a 96 well plate. The condition of qPCR was an incubation step of 95° C. for 20 seconds followed by 40 cycles of 95° C. for 3 seconds and 60° C. for 30 seconds. CT and RQ values were obtained from the software of applied Biosystems 7500 Fast Real Time PCR system. The results are shown below in Table 6, as percentage change of expression of hyaluronan synthase genes over control.

[1] = system: Human 3D skin EFT400FT tissues; test: Stimulation of HA production in human 3D skin tissues (hyaluronic acid test kit on conditioned medium); assay type: cell-based; conditions: 30 μl on apical surface, 8 hours per day for 3 days
Method: Method: Human 3D skin EFT400FT (MatTek, MA, USA) tissues were cultured following manufacture's instruction. Tiliacora triandra extract (extracted from hydroponically grown plant using 20/80 (v/v) water/ethanol) was added directly to the culture medium from a stock solution of 10% (w/w) extract in water in an amount adequate to achieve a final concentration of 0.2% (w/w) in the culture medium. The culture medium (EFT-400-MM) with and without Tiliacora triandra extract was collected 24 hours after dosing and fresh medium with and without Tiliacora triandra extract was added. Conditioned media from 3-day collection were pooled and assayed for the levels of HA.
HA production was measured using hyaluronic acid test kit (Corgenix, Inc. CO, USA). […] Add 100 μl Stopping Solution to stop the enzyme reaction and read the O.D. of each well at 450 nm. The amount of HA in the conditioned medium was calculated from this standard curve. […]
The same procedure of Example 4 was repeated using the skincare active glycolic acid, alone or in combination with hydroponic Tiliacora triandra extract, to investigate possible synergies between hydroponic Tiliacora triandra extract and glycolic acid. […] Glycolic acid was formulated into the base formula provided below in Table 3 in an amount calculated to provide a 0.5% (w/w) concentration of glycolic acid in the emulsion. […]

HAS2 gene = test: Hyaluronic acid synthase (HAS) gene expression by qPCR in treated 3D skin tissue, HAS2; assay type: cell-based, Human; conditions: treated 3D skin EFT400FT tissue, 18S house keeping gene
Method: as §1

SMILES | HAS3 gene % change of expression over control (HAS3 gene) [%] | % change in HA level over the control ([1]; Example 6, 5% (w/w) niacinamide emulsion) [%] | HAS2 gene % change of expression over control (HAS2 gene) | % change in HA level over the control ([1]; Example 5, 0.5% (w/w) glycolic acid emulsion) [%]
NC(=O)c1cccnc1 [Niacinamide, niacinamide] | 106 | 119.54 | No effect | –
O=C(O)CO [Glycolic acid, glycolic acid] | 101 | – | No effect | 25.21
